From patent US4497803A, “Inclusion compound of lankacidin-group antibiotic and use thereof” (priority 1982, dated 1985)
≈ marks a conversion by molar mass, not a printed value. Where two headings read alike, the source gives them in different places.

Columns and labels:
[1] = Solubility of lankacidin-group in β-CD solution (10^-2 Mol/l), shaken 30 minutes to one hour (Example 4); assay type: physicochemical
Description: (§1) Powdery lankacidin C was added to an aqueous solution of cyclodextrin (hereinafter referred to as "CD") to have 4 mg/ml of the lankacidin C contained. After the mixture was stirred with a mixer, it was shaken at 5° C. for 2 hours, and passed through filter paper. The absorbancy of the filtrate was measured at 227-229 nm to determine concentration of the lankacidin C.
The solubility of lankacidin-group in a solution of β-CD (10^-2 Mol/l) were measured in the same manner as that of Example 1 except that the shaking was continued for 30 minutes to one hour.

[2] = Solubility of C8-P and C14-P in CD solution, shaken one hour (Example 2); assay type: physicochemical
Description: as §1
Solubilities of lankacidin C 8-propionate (hereinafter referred to as "C8-P"), and lankacidin C 14-propionate (hereinafter referred to as "C14-P") in a solution of CD were measured in the same manner as that of Example 1 except that the shaking was continued for one hour.

[3] = Solubility of inclusion compound in water; assay type: physicochemical
Description: The lankacidin-group is added to each of solutions containing various amounts of cyclodextrin. The minimum concentration of cyclodextrin which dissolves the maximum amount of the lankacidin-group compound and practical concentrations thereof are determined on the basis of amounts of the lankacidin-group compound dissolved in the cyclodextrin solutions. Then, the molar ratio of cyclodextrin to lankacidin-group compound is calculated by the following equation:
Molar ratio=[Molarity of cyclodextrin]:[(Saturation molarity of lankacidin-group compound in a certain concentration of cyclodextrin-solution)-(saturation molarity of lankacidin-group compound in an aqueous solution)].
Moreover, a large amount of the present inclusion compound is dissolved in water and it is kept stably therein. Solubility of the inclusion compound in water is greater than that of landacidin-group compounds in water, when the amount of the inclusion compound dissolved is calculated in terms of lankacidin-group compound, and than saturation concentration of cyclodextrin in water so far as cyclodextrin contained in the inclusion compound is concerned (Table 2).
(1) Solubility of lankacidingroup in water.
(2) Solubility of lankacidingroup in M/100 cyclodextrin solution.
(3) Concentration of cyclodextrin of (2).
(4) Solubility (maximum) of the present inclusion compound (calculated in
terms of lankacidingroup contained) in water.
(5) Concentration of cyclodextrin contained in the inclusion compound of […]

St. aureus 209P = assay: Stability of inclusion compound of lankacidin-group (24° C., for 6 days): antibacterial activity by paper disk assay; assay type: cell-based; conditions: methanol, 1000 μg/ml
Description: The inclusion compound of the present invention is stable in an aqueous solution, although it splits into lankacidin-group moiety and cyclodextrins moiety, when it is in the form of solution or powder, by contacting it with organic solvents (e.g., ethyl acetate, methyl isobutyl ketone) or various carriers (e.g., silica gel, high-porous resins). […] In comparing the antibacterial activity, concentrations of the inclusion compound are calculated in terms of lankacidin-group compound from which the inclusion compound is prepared.
Stability of inclusion compound of lankacidin-group
*1 Paper disk assay using Trypticase soy agar (Baltimore Biologicals Ltd.
U.S.A.) as test culture media.
*2 1000 μg/ml, Lankacidingroup is stable in methanol.
*3 Aqueous solution of the inclusion compound with cyclodextrin (1000
μg/ml calculated in terms of lankacidingroup)

[4] = Solubility in β-CD solution, shaken 16 hours (Example 3); assay type: physicochemical
Description: as §1
The solubilities of lankacidin A, lankacidin C and lankacidinol in a β-CD solution were measured in the same manner as that of Example 1 except that the shaking was continued for 16 hours.

[5] = aqueous β-cd solution, β-CD 10^-2 Mol/l
[6] = aqueous β-cd solution, β-CD 10^-3 Mol/l
[7] = aqueous β-cyclodextrin solution, β-CD 10^-2 Mol/l, read-out: Solubility
[8] = β-CD 0 Mol/l (water), read-out: Solubility

Q: Which results are given for Iso-lankacidinol?
A: solubility ([1]; β-CD 0 Mol/l (water)): 796 µg/mL; solubility ([1]; β-CD 10^-2 Mol/l): 3200 µg/mL; ratio: Solubility in a 10^-2 Mol/l solution of CD/solubility in water ([1]; β-CD 10^-2 Mol/l vs water): 4.02

Q: For CCC(=O)OC1C=CC(C)=CCC(O)C=CC(C)=CC(NC(=O)C(C)=O)C2(C)C(=O)OC(C1)C(C)C2=O (stereo not shown) [C14-P, lankacidin C 14-propionate], which solubility at 1 h [2, 5] is on record?
A: Its solubility at 1 h is 159 µg/mL (≈ 308 µM).

Q: What about the solubility at 1 h [2, 6] of the same molecule?
A: Its solubility at 1 h is 67 µg/mL (≈ 130 µM).

Q: What about the solubility at 1 h ([2]; aqueous β-cd solution, β-CD 10^-4 Mol/l) of the same molecule?
A: Its solubility at 1 h is 21 µg/mL (≈ 40.7 µM).

Q: What about the solubility at 1 h ([2]; aqueous γ-cd solution, γ-CD 10^-2 Mol/l) of the same molecule?
A: The solubility at 1 h was 273 µg/mL (≈ 529 µM).

Q: What about the solubility at 1 h ([2]; aqueous γ-cd solution, γ-CD 10^-3 Mol/l) of the same molecule?
A: The solubility at 1 h was 114 µg/mL (≈ 221 µM).

Q: And the solubility at 1 h ([2]; aqueous γ-cd solution, γ-CD 10^-4 Mol/l)?
A: Its solubility at 1 h is 35 µg/mL (≈ 67.9 µM).

Q: And the solubility at 1 h ([2]; water, β-CD, CD 0 Mol/l)?
A: The solubility at 1 h was 19 µg/mL (≈ 36.9 µM).

Q: And the solubility at 1 h ([2]; water, γ-CD, CD 0 Mol/l)?
A: The solubility at 1 h was 19 µg/mL (≈ 36.9 µM).

Q: What does the source list for CC1=CCC(O)C=CC(C)=CC(NC(=O)C(C)O)C2(C)C(=O)OC(CC(O)C=C1)C(C)C2=O (stereo not shown) [Lankacidinol, lankacidinol]?
A: solubility ([3]; m/100 cyclodextrin solution, M/100 cyclodextrin, (3) cyclodextrin 11.3 mg/ml, read-out: (2) Solubility of lankacidin-group in M/100 cyclodextrin solution): 3780 µg/mL (≈ 8190 µM); solubility ([3]; water, read-out: (1) Solubility of lankacidin-group in water): 655 µg/mL (≈ 1420 µM); Antibacterial activity, inhibition diameter (St. aureus 209P; 0 day): 25.75 mm; Antibacterial activity, inhibition diameter (St. aureus 209P; 3 days at 24° C.): 27.0 mm; Antibacterial activity, inhibition diameter (St. aureus 209P; 6 days at 24° C.): 30.0 mm; solubility at 16 h ([4]; aqueous β-cd solution, β-CD 2 × 10^-3 Mol/l): 1360 µg/mL (≈ 2950 µM); solubility at 16 h ([4]; aqueous β-cd solution, β-CD 5 × 10^-3 Mol/l): 2130 µg/mL (≈ 4610 µM); solubility at 16 h [4, 5]: 2750 µg/mL (≈ 5960 µM); solubility at 16 h [4, 6]: 914 µg/mL (≈ 1980 µM); Solubility in β-CD solution as function of β-CD concentration ([4]; from the vicinity of 10^-3 Mol/l of β-CD): increase in proportion to the concentration of β-CD; solubility at 16 h ([4]; water, β-CD 0 Mol/l): 444 µg/mL (≈ 962 µM)

Q: With CC1=CCC(O)C=CC(C)=CC(NC(=O)C(C)O)C(C)C(=O)C(C)=CCC(O)C=C1 (stereo not shown) [Lankacyclinol, lankacyclinol] as the molecule, how does the “ratio: Solubility in a 10^-2 Mol/l solution of CD/solubility in water” value (“ratio: Solubility” below) [1] read?
A: Its value is 4.38.

Q: What about the solubility ([1]; aqueous β-cyclodextrin solution) of the same molecule?
A: The solubility was 3610 µg/mL (≈ 8650 µM).

Q: What about the solubility ([1]; water) of the same molecule?
A: Its solubility is 824 µg/mL (≈ 1970 µM).

Q: Which solubility [1, 7] does the source give for CCCC(=O)OC1C=CC(C)=CCC(O)C=CC(C)=CC(NC(=O)C(C)=O)C2(C)C(=O)OC(C1)C(C)C2=O (stereo not shown) [Lankacidin C 14-butylate] here?
A: The solubility was 118 µg/mL (≈ 223 µM).

Q: What about the solubility [1, 8] of the same molecule?
A: The solubility was 17 µg/mL (≈ 32.1 µM).

Q: And the “ratio: Solubility” value ([1]; β-CD 10^-2 Mol/l vs water)?
A: Its value is 6.94.

Q: With CC(=O)OC1C=CC(C)=CC(NC(=O)C(C)O)C2(C)C(=O)OC(CC(OC(C)=O)C=CC(C)=CC1)C(C)C2=O (stereo not shown) [Lankacidinol 8,14-diacetate] as the molecule, how does the solubility [1, 7] read?
A: The solubility was 1780 µg/mL (≈ 3260 µM).

Q: What about the solubility [1, 8] of the same molecule?
A: The solubility was 440 µg/mL (≈ 806 µM).

Q: What about the “ratio: Solubility” value ([1]; β-CD 10^-2 Mol/l vs water) of the same molecule?
A: The value was 4.05.

Q: Which solubility [1, 7] does the source give for CC(=O)OC1C=CC(C)=CCC(O)C=CC(C)=CC(NC(=O)C(C)O)C2(C)C(=O)OC(C1)C(C)C2=O (stereo not shown) [Lankacidinol A, lankacidinol A] here?
A: The solubility was 3070 µg/mL (≈ 6100 µM).

Q: What about the solubility [1, 8] of the same molecule?
A: Its solubility is 170 µg/mL (≈ 338 µM).

Q: And the “ratio: Solubility” value ([1]; β-CD 10^-2 Mol/l vs water)?
A: Its value is 18.1.
